US9096543B2, “Nuclear transport modulators and uses thereof” (Karyopharm Therapeutics Inc., priority 2012, dated 2015)
“Also recorded” adds a separate entry of the source.

Legend:
[1] = tested on: Z-138 xenograft tumors; assay: Z-138 lymphoma cell line grown as a xenograft in SCID mice; format: in vivo, CB-17 SCID mice
Protocol: Z-138 (ATCC # CRL-3001) mantle cell lymphoma cells were obtained from ATCC. These cells were grown in IMEM medium supplemented with 10% horse serum, 1% penicillin and streptomycin, and 2 mM L-glutamine. […] Twenty-four (24) female CB-17 SCID mice (Charles River Labs strain code 236), aged 5 to 6 weeks were used. The SCID mice were inoculated in the left flank with Z-138 cells in a volume of 0.2 mL, equivalent to 4×10^7 cells per mouse. […] Mice were allocated to […] prior to the initiation of treatment based on tumor volume such that mean tumor volume in each group was within the range of 77 to 92 mm^3. […] Animals were fed with Labdiet® 5001 rodent chow and sterile water ad libitum. […] Animals with weight loss of more than 20% of their starting weight were euthanized. Mice with weight loss of more than 15% of their starting weight were not treated again until weight loss recovered to less than 5% of their starting weight. Any animals with a tumor volume of more than 1500 mm^3 were euthanized. Dosing solutions were prepared fresh on each day of dosing. […] This was prepared by dissolving the lyophilized powder in sterile water.

[2] = molecular target: T1, CRM1 (Homo sapiens, UniProt O14980); assay: RevGFP assay: inhibition of CRM1 mediated nuclear export; format: cell-based; conditions: U2OS-RevGFP cells, ~1 hr with compound; read-out: Rev Export [IC50]
T1 construct: endogenous in cells; host or cells: U2OS-RevGFP cells
Protocol: The inhibition of CRM1 mediated nuclear export by compounds of the invention was determined. The inhibitory activity of compounds for the CRM1 protein was determined in the RevGFP assay.
Experimental protocol: Rev is a protein from human immunodeficiency virus type 1 (HIV-1) and contains a nuclear export signal (NES) in its C-terminal domain and a nuclear localization signal (NLS) in its N-terminal domain. Nuclear export of Rev protein is dependent on the classical NES/CRM1 pathway (Neville et al, 1997, Kau et al, 2003). Nuclear accumulation of Rev is observed in cells treated with specific inhibitors of CRM1, such as LMB (Kau et al, 2003). In this assay, U2OS-RevGFP cells are seeded onto clear-bottom, black, 384-well plates the day before the experiment. Compounds are serially diluted 1:2 starting from 40 μM in a separate 384-well plate in DMEM, and then transferred onto cells. Cells are incubated with compound for ˜1 hr before fixation with 3.7% formaldehyde and nuclei staining with Hoechst 33258. The amount of GFP in cell nuclei was measured and compound IC50s were determined (Kau et al, 2003).

[3] = tested on: diet-induced obesity; assay: Diet-induced obesity (DIO) model; format: in vivo, Sprague-Dawley rats
Protocol: Male Sprague-Dawley rats of age 2 months were placed on a high fat diet (Research Diets Inc., product code D12492, 60% kcal % fat) for 3 months. A group of age-matched rats were fed normal lab chow (LabDiet 5001, ˜13% kcal % fat), these animals served as controls for DIO group.
At age 4 months, and 2 months into placement of high fat diet, all rats were allocated into 3 groups of N=7 based on equivalent body weights and food intakes. Body weights and food and water intakes were measured at approximately the same time each day. On treatment days, dosing was at approximately 2 hours before lights off.
The DIO control group was treated with vehicle (oral, 10 mL/kg dose volume; 0.5% Pluronic F68 and 0.5% PVP K29/32 in water) on each weekday. The Compound 21.5 mg/kg group was orally treated on each weekday throughout the treatment phase (dose 10 mL/kg dose volume; 0.5% Pluronic F68 and 0.5% PVP K29/32 in water). The Compound 2 3 mg/kg group (10 mL/kg dose volume; 0.5% Pluronic F68 and 0.5% PVP K29/32 in water) was orally treated initially once daily on each weekday for week 1, then twice weekly (Monday, Wednesday) for week 2. During treatment weeks 3 and 4, Compound 2 3 mg/kg treatment continued twice weekly, except dosing was on Monday and Thursday.
Prior to the treatment phase, 3 days baseline data were collected. The treatment phase was for 4 weeks. A washout phase of 10 days was also included.
Compound 2 was supplied in powder form. […] Active percentage was adjusted using BEW of 1.437 and prepared by dissolving into 0.5% w/v Pluronic F-68 and 0.5% w/v PVP K-29-32 vehicle solution. The vehicle solution was prepared on a weekly basis while Compound 2 was prepared fresh every 2 days and stored at +4° C. Animals were dosed at a volume of 10 mL/kg. Individual doses were calculated based on the most recent body weights to provide the proper mg/kg/day dosage.

[4] = tested on: IMQ-induced psoriasis; assay: Imiquimod (IMQ)-induced dermal inflammation/psoriasis model (Study 1); format: in vivo, BALB/c mice; conditions: Compound 2 1 μM
Description: Forty (40) male BALB/c mice aged 6 to 8 weeks were used with a pretreatment body weight of 22 to 30 g. The BALB/c mice were randomized into four (4) groups of 10 mice per group. A small area (about 2×2 cm^2) of skin on the dorsum of all the animals was neatly shaved. Group-I animals served as Naïve animals. Psoriasis was induced in Groups II to IV [Group II (IMQ; vehicle), Group III (IMQ; […] Animals were observed daily for a period of 13 days for any treatment-related symptoms. The daily observations included body weight, feed intake, skin thickening, scaling, folding, erythema, nasal discharge, movement, respiration, hair, distended abdomen, skin condition, fur, mucous membrane, presence or absence of secretions, eye condition, tail elevation, motor activity, posture and gait. Severity of damage to the dorsal portion of the skin was assessed by assigning erythema, scaling, folding and skin thickening scores based on external observations of skin, according to rubric in Table 9. […] Compound 2 was prepared by dissolving 1.47 mg of Compound 2 in 300 μL of 100% DMSO.

T1 sequence (O14980 whole entry): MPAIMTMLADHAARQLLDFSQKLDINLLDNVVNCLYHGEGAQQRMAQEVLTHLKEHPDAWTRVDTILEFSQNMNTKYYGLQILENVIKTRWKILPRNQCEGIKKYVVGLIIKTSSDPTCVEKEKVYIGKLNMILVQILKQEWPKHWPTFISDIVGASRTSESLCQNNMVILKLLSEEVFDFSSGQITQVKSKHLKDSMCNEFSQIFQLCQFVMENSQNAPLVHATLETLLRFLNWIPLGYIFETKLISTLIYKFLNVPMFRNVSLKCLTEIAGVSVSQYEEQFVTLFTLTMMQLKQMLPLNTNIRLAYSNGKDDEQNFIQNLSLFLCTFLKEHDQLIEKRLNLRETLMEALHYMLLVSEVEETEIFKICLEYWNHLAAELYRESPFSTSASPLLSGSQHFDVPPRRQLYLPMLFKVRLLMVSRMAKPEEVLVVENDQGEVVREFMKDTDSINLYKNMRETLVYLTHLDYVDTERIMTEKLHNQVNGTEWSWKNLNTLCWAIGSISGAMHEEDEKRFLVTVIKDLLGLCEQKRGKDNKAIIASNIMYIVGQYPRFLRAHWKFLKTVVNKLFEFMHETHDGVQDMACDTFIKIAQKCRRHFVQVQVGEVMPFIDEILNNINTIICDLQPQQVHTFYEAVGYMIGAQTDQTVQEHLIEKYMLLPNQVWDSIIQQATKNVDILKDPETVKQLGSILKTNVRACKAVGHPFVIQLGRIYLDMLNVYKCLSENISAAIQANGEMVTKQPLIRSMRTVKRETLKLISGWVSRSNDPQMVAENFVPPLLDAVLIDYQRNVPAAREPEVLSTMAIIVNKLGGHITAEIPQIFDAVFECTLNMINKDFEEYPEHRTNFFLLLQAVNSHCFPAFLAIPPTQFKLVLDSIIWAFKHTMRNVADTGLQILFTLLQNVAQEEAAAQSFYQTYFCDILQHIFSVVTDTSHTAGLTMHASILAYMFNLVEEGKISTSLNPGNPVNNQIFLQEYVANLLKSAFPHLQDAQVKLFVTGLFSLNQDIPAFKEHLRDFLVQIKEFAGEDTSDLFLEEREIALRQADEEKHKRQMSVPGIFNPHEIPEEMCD

- weight loss ([1]; Compound 2 15 mg/kg PO, significant vs vehicle, severe loss limited to a few animals): Some weight loss was observed
- IC50 [2]: < 1000 nM
Compound: O=C(/C=C\n1cnc(-c2cc(C(F)(F)F)cc(C(F)(F)F)c2)n1)NNC(=O)CN1CCOCC1 [Compound 2, (Z)-3-(3-(3,5-bis(trifluoromethyl)phenyl)-1H-1,2,4-triazol-1-yl)-N′-(2-morpholinoacetyl)acrylohydrazide]
- antitumor effect ([1]; Compound 2 orally, 7.5 and 15 mg/kg MWF): had antitumor effect at both 7.5 mg/kg and 15 mg/kg doses in a dose dependent manner
- daily food intake and body weight compared to DIO control group ([3]; 1.5-3 mg/kg oral, 28 day treatment period): dose-related decrease in daily food intake and body weight; also recorded: decreases daily food intake in a dose dependent manner
- body weight gain (percentage of body weight change from study day 3) compared to DIO controls ([3]; 1.5 and 3 mg/kg, treatment days 7 (study day 10) and 14 (study day 17)): significant reduction in weight gain
- body weight over the washout phase ([3]; washout phase, both Compound 2 groups): remained lower than DIO controls
- body weight, food and water intake [4]: without adversely affecting body weight, food and water intake
- IMQ-induced disease manifestation / disease activity index ([4]; daily Day 1 to Day 13): diminished IMQ-induced disease manifestation; also recorded: reduction in disease activity index in comparison to the vehicle treated group
